From the supplement of paper PMC6045584
± gives the standard deviation of the averaged measurements.

Key:
MLN-4924 = compound: NS(=O)(=O)OC[C@@H]1C[C@@H](n2ccc3c(N[C@H]4CCc5ccccc54)ncnc32)C[C@@H]1O [MLN-4924]; assay: surviving fraction relative to DMSO-only wells; higher = less growth inhibition; conditions: exposure time: 5 days
In short: (§1)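 Surviving fraction is CellTiter-Glo luminescence divided by the median of wells given DMSO only. For this, log-phase tumour cell lines went into 384-well plates at 250–500 cells per well and, 24 hours later, into five days of continuous inhibitor exposure at 0.5, 1, 5, 10, 50, 100, 500 and 1000 nM. Lines were screened three times and retained only if replicate Pearson r >0.7 and median Z' >0.3.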

ABIRATERONE = compound: C[C@]12CC[C@H](O)CC1=CC[C@@H]1[C@@H]2CC[C@]2(C)C(c3cccnc3)=CC[C@@H]12 [ABIRATERONE]; assay: as above; conditions: exposure time: 5 days
In short: as §1

Test System | surviving fraction (MLN-4924; 0.5 nM) | surviving fraction (MLN-4924; 1 nM) | surviving fraction (MLN-4924; 5 nM) | surviving fraction (MLN-4924; 10 nM) | surviving fraction (MLN-4924; 50 nM) | surviving fraction (MLN-4924; 100 nM) | surviving fraction (MLN-4924; 500 nM) | surviving fraction (MLN-4924; 1000 nM) | surviving fraction (ABIRATERONE; 0.5 nM) | surviving fraction (ABIRATERONE; 1 nM) | surviving fraction (ABIRATERONE; 5 nM) | surviving fraction (ABIRATERONE; 10 nM) | surviving fraction (ABIRATERONE; 50 nM) | surviving fraction (ABIRATERONE; 100 nM) | surviving fraction (ABIRATERONE; 500 nM) | surviving fraction (ABIRATERONE; 1000 nM)
JURKAT HAEMATOPOIETIC AND LYMPHOID TISSUE | 1.07 ± 0.016 | 1.02 ± 0.032 | 1.01 ± 0.025 | 0.931 ± 0.025 | 0.371 ± 0.012 | 0.154 ± 0.0059 | 0.0333 ± 0.00058 | 0.0313 ± 0.00058 | 1.09 ± 0.027 | 1.106 ± 0.0066 | 1.09 ± 0.022 | 1.07 ± 0.016 | 1.08 ± 0.018 | 1.03 ± 0.037 | 1.01 ± 0.022 | 0.995 ± 0.029
KPD BONE | 0.9553 ± 0.0032 | 0.985 ± 0.028 | 1.04 ± 0.057 | 1.09 ± 0.094 | 0.921 ± 0.045 | 0.736 ± 0.048 | 0.239 ± 0.017 | 0.183 ± 0.022 | 0.966 ± 0.05 | 0.993 ± 0.054 | 1.02 ± 0.012 | 1.07 ± 0.043 | 1.07 ± 0.054 | 1.09 ± 0.041 | 1.01 ± 0.035 | 0.976 ± 0.054
LM7 BONE | 0.919 ± 0.081 | 1.02 ± 0.026 | 1.09 ± 0.059 | 0.946 ± 0.034 | 0.486 ± 0.033 | 0.256 ± 0.026 | 0.1 ± 0.02 | 0.1 ± 0.0098 | 0.954 ± 0.014 | 0.963 ± 0.097 | 1.07 ± 0.15 | 1.01 ± 0.026 | 1.05 ± 0.021 | 1.06 ± 0.094 | 0.97 ± 0.058 | 0.979 ± 0.038
LNCAP PROSTATE | 0.939 ± 0.1 | 1 ± 0.021 | 0.803 ± 0.092 | 0.496 ± 0.051 | 0.085 ± 0.014 | 0.026 ± 0.001 | 0.0227 ± 0.0011 | 0.024 | 0.875 ± 0.08 | 0.996 ± 0.24 | 0.92 ± 0.026 | 0.869 ± 0.11 | 0.93 ± 0.1 | 0.976 ± 0.15 | 0.84 ± 0.12 | 0.791 ± 0.14
MCF7 BREAST | 0.889 ± 0.029 | 0.9226 ± 0.0022 | 0.935 ± 0.013 | 0.975 ± 0.027 | 0.641 ± 0.063 | 0.448 ± 0.062 | 0.265 ± 0.026 | 0.235 ± 0.016 | 0.961 ± 0.071 | 0.917 ± 0.059 | 0.902 ± 0.098 | 0.945 ± 0.027 | 1.01 ± 0.024 | 0.874 ± 0.039 | 1.05 ± 0.066 | 0.921 ± 0.017
MDAMB134 BREAST | 0.904 ± 0.21 | 1.036 ± 0.0099 | 0.934 ± 0.12 | 0.731 ± 0.1 | 0.562 ± 0.14 | 0.393 ± 0.03 | 0.267 ± 0.0035 | 0.281 ± 0.005 | 1.12 ± 0.043 | 0.896 ± 0.18 | 1.36 ± 0.096 | 0.943 ± 0.063 | 1.12 ± 0.049 | 1.15 ± 0.37 | 0.927 ± 0.13 | 0.965 ± 0.098
MDAMB157 BREAST | 1 ± 0.019 | 0.966 ± 0.087 | 0.968 ± 0.07 | 0.931 ± 0.041 | 0.906 ± 0.09 | 0.743 ± 0.054 | 0.379 ± 0.043 | 0.267 ± 0.022 | 0.85 ± 0.017 | 0.892 ± 0.1 | 0.912 ± 0.081 | 1.12 ± 0.1 | 1.01 ± 0.092 | 1.09 ± 0.14 | 1.01 ± 0.1 | 0.957 ± 0.11
MDAMB231 BREAST | 0.9815 ± 0.006 | 0.978 ± 0.026 | 0.971 ± 0.025 | 0.933 ± 0.024 | 0.676 ± 0.0082 | 0.62 ± 0.035 | 0.243 ± 0.0094 | 0.175 ± 0.0081 | 0.991 ± 0.011 | 0.998 ± 0.048 | 1.02 ± 0.023 | 0.992 ± 0.031 | 1.02 ± 0.013 | 1.03 ± 0.024 | 1.02 ± 0.014 | 0.942 ± 0.027
MDAMB361 BREAST | 0.894 ± 0.12 | 0.785 ± 0.028 | 0.829 ± 0.051 | 0.853 ± 0.1 | 0.735 ± 0.048 | 0.736 ± 0.061 | 0.594 ± 0.03 | 0.549 ± 0.042 | 0.881 ± 0.035 | 0.872 ± 0.096 | 0.82 ± 0.045 | 0.825 ± 0.076 | 1.53 ± 0.14 | 0.91 ± 0.04 | 0.837 ± 0.072 | 0.719 ± 0.07
MDAMB436 BREAST | 0.946 ± 0.13 | 0.962 ± 0.082 | 0.961 ± 0.097 | 0.952 ± 0.13 | 0.555 ± 0.053 | 0.427 ± 0.037 | 0.272 ± 0.025 | 0.256 ± 0.016 | 0.954 ± 0.13 | 0.934 ± 0.063 | 0.915 ± 0.083 | 0.93 ± 0.061 | 1.02 ± 0.049 | 0.895 ± 0.052 | 0.953 ± 0.035 | 0.894 ± 0.037
MDAMB453 BREAST | 1.1 ± 0.038 | 1.08 ± 0.056 | 1.07 ± 0.07 | 1.1 ± 0.066 | 0.589 ± 0.019 | 0.493 ± 0.034 | 0.363 ± 0.045 | 0.304 ± 0.017 | 1.05 ± 0.053 | 1.04 ± 0.13 | 1.15 ± 0.028 | 1.06 ± 0.072 | 1.09 ± 0.086 | 1.08 ± 0.0082 | 1.01 ± 0.029 | 1.006 ± 0.0072
MDAMB468 BREAST | 1.15 ± 0.068 | 1.09 ± 0.062 | 1.13 ± 0.1 | 1.04 ± 0.11 | 0.436 ± 0.0053 | 0.302 ± 0.05 | 0.18 ± 0.0087 | 0.178 ± 0.021 | 0.965 ± 0.013 | 1.04 ± 0.034 | 0.997 ± 0.079 | 1.07 ± 0.052 | 1.18 ± 0.13 | 1.12 ± 0.053 | 1.05 ± 0.11 | 0.961 ± 0.09
MFM223 BREAST | 1.43 ± 0.45 | 1.47 ± 0.56 | 1.33 ± 0.39 | 1.16 ± 0.56 | 0.586 ± 0.066 | 0.42 ± 0.032 | 0.181 ± 0.022 | 0.152 ± 0.062 | 1.19 ± 0.033 | 1.1 ± 0.08 | 1.17 ± 0.031 | 1.14 ± 0.099 | 1.22 ± 0.029 | 1.22 ± 0.015 | 1.2 ± 0.1 | 1.1 ± 0.1
MG63 BONE | 1.03 ± 0.057 | 1.02 ± 0.046 | 1.07 ± 0.042 | 1.13 ± 0.054 | 0.4 ± 0.058 | 0.031 ± 0.0046 | 0.0287 ± 0.005 | 0.0287 ± 0.0023 | 1.09 ± 0.022 | 1.06 ± 0.038 | 1.11 ± 0.057 | 1.09 ± 0.042 | 1.09 ± 0.021 | 1.07 ± 0.045 | 1.05 ± 0.041 | 1.03 ± 0.017
MHM BONE | 0.973 ± 0.011 | 0.995 ± 0.024 | 1.04 ± 0.035 | 1.09 ± 0.038 | 1.37 ± 0.02 | 1.36 ± 0.015 | 0.39 ± 0.042 | 0.286 ± 0.015 | 1.03 ± 0.038 | 1.005 ± 0.0032 | 1.03 ± 0.027 | 1.05 ± 0.02 | 1.07 ± 0.024 | 1.05 ± 0.015 | 1.03 ± 0.018 | 1.05 ± 0.034
NCIH441 LUNG | 1.08 ± 0.077 | 1.15 ± 0.099 | 1.11 ± 0.087 | 1.12 ± 0.03 | 1.01 ± 0.051 | 0.846 ± 0.11 | 0.431 ± 0.033 | 0.414 ± 0.022 | 1.04 ± 0.067 | 1.02 ± 0.12 | 1.08 ± 0.14 | 1.01 ± 0.077 | 1.1 ± 0.065 | 1.05 ± 0.11 | 1.01 ± 0.046 | 0.948 ± 0.051
NOS1 BONE | 0.988 ± 0.11 | 1.02 ± 0.11 | 1.23 ± 0.23 | 1.29 ± 0.21 | 1.22 ± 0.1 | 1.04 ± 0.14 | 0.637 ± 0.083 | 0.506 ± 0.033 | 1.27 ± 0.16 | 1.05 ± 0.044 | 1.23 ± 0.089 | 1.22 ± 0.099 | 1.19 ± 0.15 | 1.24 ± 0.17 | 1.2 ± 0.095 | 0.999 ± 0.04
NY BONE | 1.05 ± 0.024 | 1.03 ± 0.02 | 1.18 ± 0.036 | 1.2 ± 0.04 | 0.82 ± 0.073 | 0.48 ± 0.0085 | 0.289 ± 0.0061 | 0.232 ± 0.0095 | 1.05 ± 0.021 | 1.06 ± 0.029 | 1.08 ± 0.034 | 1.1 ± 0.059 | 1.105 ± 0.011 | 1.09 ± 0.032 | 1.08 ± 0.027 | 1.06 ± 0.028
OS25HAL BONE | 1.05 ± 0.029 | 1.05 ± 0.017 | 1.11 ± 0.034 | 0.982 ± 0.02 | 0.773 ± 0.041 | 0.533 ± 0.06 | 0.181 ± 0.01 | 0.102 ± 0.016 | 1.02 ± 0.02 | 1.01 ± 0.011 | 1.039 ± 0.0055 | 0.989 ± 0.021 | 1.106 ± 0.0096 | 1.08 ± 0.017 | 1.07 ± 0.053 | 1.07 ± 0.034
OSHN BONE | 1.09 ± 0.016 | 1.079 ± 0.01 | 1.15 ± 0.026 | 1.087 ± 0.0023 | 0.733 ± 0.018 | 0.565 ± 0.045 | 0.274 ± 0.028 | 0.258 ± 0.054 | 1.13 ± 0.021 | 1.102 ± 0.009 | 1.12 ± 0.022 | 1.09 ± 0.029 | 1.13 ± 0.016 | 1.13 ± 0.031 | 1.11 ± 0.017 | 1.09 ± 0.024
